# Laboratory results as given in paper PMC5819394 (Proceedings of the National Academy of Sciences of the …, 2018).
# Where two headings read alike, the source gives them in different places.
# System: GenL
# Assay type: biochemical, Micromonospora echinospora
SMILES,Km [µM],"Km (SAM as methyl donor, integrated Michaelis-Menten fit) [µM]"
CN[C@@H]1[C@@H](O)[C@@H](O[C@@H]2[C@@H](O)[C@H](O[C@H]3O[C@H](CN)CC[C@H]3N)[C@@H](N)C[C@H]2N)OC[C@]1(C)O [C1a],347 ± 86,
CN[C@@H]1[C@@H](O)[C@@H](O[C@@H]2[C@@H](O)[C@H](O[C@H]3O[C@H]([C@@H](C)N)CC[C@H]3N)[C@@H](N)C[C@H]2N)OC[C@]1(C)O [C2],,77.8 ± 8
